According to patent publication US5219870A, “Omeprazole compositions designed for administration in rectum” (priority 1990, dated 1993):
Values joined by “and” are separate entries in the source; they are usually repeats but may differ in a detail not shown here. Equal entries are not always repeated. Where two headings read alike, the source gives them in different places.

Legend:
[1] = cited from earlier work
[2] = Animal Experiment: serum concentration and bioavailability of OMP in rabbits (I.V., oral, rectum); assay type: in vivo, albino rabbits; conditions: 10 mg/kg; for bioavailability: BA (bioavailability)
Description: Using the same method as in Reference 1, one composition using water-Soluble base was manufactured by the following formula; 20 mg OMP. 10 mg arginine and 970 mg PEG 4000, and another composition using lipid-soluble base was manufactured by the following formula; 20 mg OMP, 10 mg arginine and 970 mg Witepsol H-15.
Object: 36 male healthy albino rabbits weighing 1.5-2.3 kg.
Method: before fasting, feed and water were freely provided for eating and rabbits were confined to a wire-box while giving them feed in a constant condition for 4 days. After that, their fasting was made for 48 hours (during the fasting, the rabbits could freely drink 10% dextrose solution.)
For comparison test, 4 mg/ml I.V. solution was manufactured in advance by mixing 400 mg OMP, 20 ml polyethylene glycol 4000, and 80 ml buffer solution of 0.1 mol sodium bicarbonate. 5 ml solution per rabbit was administered to its ear's vein.
Then, through the esophagus of rabbit, Levine tube in diameter of 5 mm was inserted by 30 cm for administering oral OMP capsules wrapped in paraffin film. To reduce friction, vaseline was applied around the surface of the tube and through a syringe connected to the opposite end of the tube, 30 ml water was injected and, by the water pressure, paraffin film was broken to administer the capsule into intestine.
As the feces of the rabbit were not completely removable even in 48-hour fasting, Levine tube having a thickness of 5 mm was used to thrust feces up to the upper part of rectum by 15 cm for the separate of administration of said two kinds of compositions. Then, inserted into the anus, was a cotton wrapped in vinyl tape having a length of 2 cm, fixed it with a clip so as to prevent any leaking of drug solution.
By using xylene, the venous blood vessel of rabbit's ear was extended to collect some venous blood with a heparinized 3 cc syringe. Said syringe was already treated by soaking its wall with 1000 I.U. heparin. Then, 3 cc of said collected blood sample (10,000 rpm, 10 secs) was centrigued to obtain 1 ml plasma.
Add 1 ml of said plasma sample to […] intra-standard solution, 3 ml dichloromethane, 3 ml hexaine and 2 ml of 0.1 mol sodium bicarbonate buffer solution. Then, after agitation for 30 secs, centrifuge this mixture in 2000 rpm for 5 mins to separate into organic layer (upper layer) and plasma layer (lower layer).
Put the centrifuged test tube into ice-contained methanol to freeze the plasma layer. Thereafter, take 5 ml organic solvent from the said solution and, under reduced pressure, evaporate the organic solvent by nitrogen gas. Then add 300 μl mobile phase into the residue and after agitation for 30 secs again, centrifuge the mixture in 2000 rpm for 2 mins and conduct the assay by the HPLC analysis (injected 50 μl) through the comparison of height ratio with standard solution.
Cmax is a peak serum concentration;
AUC is an area under the curve describing serum concentration-time; and […]

[3] = OMP Stability Based Upon Kinds of Stabilizer (colour change under severe condition); assay type: physicochemical; conditions: Reference 2 result in words
Text: As shown in the following table 2, PEG 4000 and Witepsol H-15 were used as bases for the manufacture of said composition; as a basic amino acid, arginine was used. The stability of said manufactured compositions was observed under a severe condition. As a diffusing medium, micro crystalline cellulose (brandname: Avicel) was used, while using sodium laurylsulfate as a releasing agent.

[4] = OMP Stability Based Upon Kinds of Base (colour change at room temperature); conditions: Reference 1 result in words
[5] = rabbit, in vivo, po, serum concentration

COc1ccc2[nH]c([S+]([O-])Cc3ncc(C)c(OC)c3C)nc2c1 (centres unmarked) [OMP, Omeprazole]
half life ([1]; neutral pH): about 14 hrs | decomposition ([1]; pH less than 4.0): rapid decomposition | stability ([1]; pH more than 7.0): very stable | serum concentration ([2]; I.V., 20 mg OMP per 2 kg, 1 min, individual animals): 110.0 µg/mL and 100.0 µg/mL and 91.5 µg/mL and 99.0 µg/mL | serum concentration ([2]; I.V., 20 mg OMP per 2 kg, 5 min, individual animals): 47.8 µg/mL and 63.3 µg/mL and 58.7 µg/mL and 56.5 µg/mL | serum concentration ([2]; I.V., 20 mg OMP per 2 kg, 15 min, individual animals): 23.8 µg/mL and 36.8 µg/mL and 24.5 µg/mL | serum concentration ([2]; I.V., 20 mg OMP per 2 kg, 30 min, individual animals): 21.0 µg/mL and 16.7 µg/mL and 16.2 µg/mL | serum concentration ([2]; I.V., 20 mg OMP per 2 kg, 60 min, individual animals): 9.1 µg/mL and 11.7 µg/mL and 6.5 µg/mL | serum concentration ([2]; I.V., 20 mg OMP per 2 kg, 120 min, individual animals): 4.6 μg/ml and 4.2 μg/ml and 4.4 μg/ml (2×) | serum concentration ([2]; I.V., 20 mg OMP per 2 kg, 180 min, individual animals): 2.2 µg/mL and 2.1 µg/mL and 2.0 µg/mL | serum concentration ([2]; oral, 20 mg OMP per 2 kg, 1 hr, individual animals, 60 min): 0.300 µg/mL and 0.492 µg/mL and 0.270 µg/mL and 0.295 µg/mL | serum concentration ([2]; oral, 20 mg OMP per 2 kg, 4 hr, individual animals, 240 min): 0.375 µg/mL and 0.376 µg/mL | serum concentration ([2]; oral, 20 mg OMP per 2 kg, 5 hr, individual animals, 300 min): 0.432 µg/mL | serum concentration ([2]; oral, 20 mg OMP per 2 kg, 7 hr, individual animals, 420 min): 0.450 µg/mL and 0.409 µg/mL and 0.506 µg/mL and 0.400 µg/mL | serum concentration ([2]; oral, 20 mg OMP per 2 kg, 9 hr, individual animals, 540 min): 0.360 µg/mL and 0.373 µg/mL and 0.365 µg/mL | serum concentration ([2]; oral, 20 mg OMP per 2 kg, 11 hr, individual animals, 660 min): 0.038 µg/mL and 0.070 µg/mL and 0.171 µg/mL and 0.176 µg/mL and 0.053 µg/mL | Tmax ([2]; oral, 20 mg OMP per 2 kg, individual animals): 5 h | AUC ([2]; rabbit, in vivo, iv): 33200 ng·h/mL | AUC ([2]; rabbit, in vivo, iv, average): 35200 ng·h/mL | concentration at 0.25 h ([2]; rabbit, in vivo, iv, serum concentration): 16400 ng/mL | serum concentration ([2]; rabbit, in vivo, po, 4 h): 0.531 µg/mL | AUC ([2]; rabbit, in vivo, po): 6070 ng·h/mL | AUC ([2]; rabbit, in vivo, po, average): 5980 ng·h/mL | bioavailability ([2]; rabbit, in vivo, po): 17.2% | bioavailability ([2]; rabbit, in vivo, po, average): 17% | Cmax ([2]; rabbit, in vivo, po): 591 ng/mL | Cmax ([2]; rabbit, in vivo, po, average): 598 ng/mL | concentration at 4 h [2, 5]: 591 ng/mL | concentration at 5 h [2, 5]: 527 ng/mL | concentration at 9 h [2, 5]: 356 ng/mL | concentration at 1 min ([2]; rabbit, serum, iv, I.V., 20 mg OMP per 2 kg, 1 min, average, read-out: serum concentration, average): 101000 ng/mL | concentration at 1 min ([2]; rabbit, serum, iv, I.V., 20 mg OMP per 2 kg, 1 min, individual animals, read-out: serum concentration): 104000 ng/mL | concentration at 5 min ([2]; rabbit, serum, iv, I.V., 20 mg OMP per 2 kg, 5 min, average, read-out: serum concentration, average): 54400 ng/mL | concentration at 5 min ([2]; rabbit, serum, iv, I.V., 20 mg OMP per 2 kg, 5 min, individual animals, read-out: serum concentration): 45900 ng/mL | concentration at 0.25 h ([2]; rabbit, serum, iv, I.V., 20 mg OMP per 2 kg, 15 min, average, read-out: serum concentration, average): 25600 ng/mL | concentration at 0.25 h ([2]; rabbit, serum, iv, I.V., 20 mg OMP per 2 kg, 15 min, individual animals, read-out: serum concentration): 26400 ng/mL | concentration at 0.5 h ([2]; rabbit, serum, iv, I.V., 20 mg OMP per 2 kg, 30 min, average, read-out: serum concentration, average): 16700 ng/mL | concentration at 0.5 h ([2]; rabbit, serum, iv, I.V., 20 mg OMP per 2 kg, 30 min, individual animals, read-out: serum concentration): 12800 ng/mL | concentration at 1 h ([2]; rabbit, serum, iv, I.V., 20 mg OMP per 2 kg, 60 min, average, read-out: serum concentration, average): 8800 ng/mL | concentration at 1 h ([2]; rabbit, serum, iv, I.V., 20 mg OMP per 2 kg, 60 min, individual animals, read-out: serum concentration): 7800 ng/mL | concentration at 2 h ([2]; rabbit, serum, iv, I.V., 20 mg OMP per 2 kg, 120 min, average, read-out: serum concentration, average): 4700 ng/mL | concentration at 2 h ([2]; rabbit, serum, iv, I.V., 20 mg OMP per 2 kg, 120 min, individual animals, read-out: serum concentration): 5800 ng/mL | concentration at 3 h ([2]; rabbit, serum, iv, I.V., 20 mg OMP per 2 kg, 180 min, average, read-out: serum concentration, average): 2100 ng/mL | concentration at 3 h ([2]; rabbit, serum, iv, I.V., 20 mg OMP per 2 kg, 180 min, individual animals, read-out: serum concentration): 2000 ng/mL | concentration at 11 h ([2]; rabbit, serum, po, 20 mg OMP per 2 kg, 11 hr, average): 102 ng/mL | concentration at 1 h ([2]; rabbit, serum, po, oral, 20 mg OMP per 2 kg, 1 hr, average, read-out: serum concentration, average): 330 ng/mL | concentration at 1 h ([2]; rabbit, serum, po, oral, 20 mg OMP per 2 kg, 1 hr, individual animals, read-out: serum concentration): 293 ng/mL | concentration at 2 h ([2]; rabbit, serum, po, oral, 20 mg OMP per 2 kg, 2 hr, average, read-out: serum concentration, average): 455 ng/mL | concentration at 2 h ([2]; rabbit, serum, po, oral, 20 mg OMP per 2 kg, 2 hr, individual animals, read-out: serum concentration): 369 ng/mL | concentration at 3 h ([2]; rabbit, serum, po, oral, 20 mg OMP per 2 kg, 3 hr, average, read-out: serum concentration, average): 413 ng/mL | concentration at 3 h ([2]; rabbit, serum, po, oral, 20 mg OMP per 2 kg, 3 hr, individual animals, read-out: serum concentration): 425 ng/mL | concentration at 4 h ([2]; rabbit, serum, po, oral, 20 mg OMP per 2 kg, 4 hr, average, read-out: serum concentration, average): 477 ng/mL | concentration at 4 h ([2]; rabbit, serum, po, oral, 20 mg OMP per 2 kg, 4 hr, individual animals, read-out: serum concentration): 410 ng/mL | concentration at 5 h ([2]; rabbit, serum, po, oral, 20 mg OMP per 2 kg, 5 hr, average, read-out: serum concentration, average): 550 ng/mL | concentration at 5 h ([2]; rabbit, serum, po, oral, 20 mg OMP per 2 kg, 5 hr, individual animals, read-out: serum concentration): 447 ng/mL | concentration at 7 h ([2]; rabbit, serum, po, oral, 20 mg OMP per 2 kg, 7 hr, average, read-out: serum concentration, average): 457 ng/mL | concentration at 7 h ([2]; rabbit, serum, po, oral, 20 mg OMP per 2 kg, 7 hr, individual animals, read-out: serum concentration): 521 ng/mL | concentration at 9 h ([2]; rabbit, serum, po, oral, 20 mg OMP per 2 kg, 9 hr, average, read-out: serum concentration, average): 357 ng/mL | concentration at 9 h ([2]; rabbit, serum, po, oral, 20 mg OMP per 2 kg, 9 hr, individual animals, read-out: serum concentration): 341 ng/mL | Tmax ([2]; rabbit, serum, po, oral, 20 mg OMP per 2 kg, individual animals, read-out: Tmax): 4 h

N=C(N)NCCC[C@H](N)C(=O)O [arginine]
stabilizing effect [3]: better stabilizing effect than sodium phosphate | stability / contribution to stabilization [4]: stability was more increased
